How the values were obtained:
Type in all cases: biochemical
[1] = target: T1, CYP1A2 (Homo sapiens, UniProt P05177); assay: Cocktail assay for CYPs, phenacetin O-deethylation (CYP1A2), human liver microsomes; conditions: 10 μM phenacetin, 0.1 mg/mL human liver microsomes, 10 min at 37° C.; read-out: CYP IC50 (nM) 1A2
T1 construct: 0.1 mg/mL protein human liver microsomes (BD Gentest); tissue BD Gentest; host or cells: human liver microsomes
T1 sequence (P05177 1-516): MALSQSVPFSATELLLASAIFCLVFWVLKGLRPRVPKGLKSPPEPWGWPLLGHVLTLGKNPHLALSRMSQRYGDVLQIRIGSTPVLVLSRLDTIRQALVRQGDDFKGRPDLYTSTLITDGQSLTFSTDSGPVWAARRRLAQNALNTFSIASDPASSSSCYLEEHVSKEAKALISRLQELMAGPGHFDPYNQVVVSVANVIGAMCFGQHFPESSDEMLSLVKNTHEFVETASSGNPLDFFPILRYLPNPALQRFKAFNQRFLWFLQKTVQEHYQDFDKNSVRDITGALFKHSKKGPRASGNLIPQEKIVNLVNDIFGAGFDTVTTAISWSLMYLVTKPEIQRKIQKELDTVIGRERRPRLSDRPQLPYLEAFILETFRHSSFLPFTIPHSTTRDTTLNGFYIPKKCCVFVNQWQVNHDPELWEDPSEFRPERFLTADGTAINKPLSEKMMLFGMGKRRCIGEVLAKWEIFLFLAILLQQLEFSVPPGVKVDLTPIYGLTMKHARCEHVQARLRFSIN
Method in brief: (§1)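 Pooled human liver microsomes (0.1 mg/mL) with a probe cocktail of 10 μM phenacetin, 5 μM dextromethorphan and 2 μM midazolam plus NADPH, pH 7.4, 10 min at 37° C. Each metabolite was quantified by LC/MS/MS against a tolbutamide internal standard. IC50 came from % inhibition at 6 concentrations (e.g. 0.0032–10 μM) by non-linear regression.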

[2] = target: T2, CYP2C9 (Homo sapiens, UniProt P11712); assay: Cocktail assay for CYPs, diclofenac 4′-hydroxylation (CYP2C9), human liver microsomes; conditions: 5 μM diclofenac, 0.1 mg/mL human liver microsomes, 10 min at 37° C.; read-out: CYP IC50 (nM) 2C9
T2 construct: 0.1 mg/mL protein human liver microsomes (BD Gentest); tissue BD Gentest; host or cells: human liver microsomes
T2 sequence (P11712 whole entry): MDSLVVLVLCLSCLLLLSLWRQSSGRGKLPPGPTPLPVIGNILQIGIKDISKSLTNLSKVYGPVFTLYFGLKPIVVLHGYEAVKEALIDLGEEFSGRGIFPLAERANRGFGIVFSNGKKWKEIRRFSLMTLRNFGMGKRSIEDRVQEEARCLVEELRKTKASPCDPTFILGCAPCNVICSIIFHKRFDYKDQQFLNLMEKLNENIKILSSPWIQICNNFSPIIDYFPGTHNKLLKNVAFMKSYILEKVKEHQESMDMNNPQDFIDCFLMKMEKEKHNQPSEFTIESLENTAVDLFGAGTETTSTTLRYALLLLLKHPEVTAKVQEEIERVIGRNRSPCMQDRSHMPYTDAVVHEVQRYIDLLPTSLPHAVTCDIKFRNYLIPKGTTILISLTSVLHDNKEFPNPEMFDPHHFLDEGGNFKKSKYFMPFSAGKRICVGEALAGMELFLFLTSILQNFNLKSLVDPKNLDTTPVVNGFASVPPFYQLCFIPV
Method in brief: (§2)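 Pooled human liver microsomes (0.1 mg/mL) with probe cocktail incl. 5 μM diclofenac (CYP2C9) and 30 μM mephenytoin (CYP2C19), 1 mM NADPH, pH 7.4 phosphate buffer, 10 min at 37° C. Metabolites quantified by LC/MS/MS against internal standard; % inhibition versus no-inhibitor control, IC50 by non-linear regression.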

[3] = target: T3, CYP2C19 (Homo sapiens, UniProt P33261); assay: Cocktail assay for CYPs, mephenytoin 4′-hydroxylation (CYP2C19), human liver microsomes; conditions: 30 μM mephenytoin, 0.1 mg/mL human liver microsomes, 10 min at 37° C.; read-out: CYP IC50 (nM) 2C19
T3 construct: 0.1 mg/mL protein human liver microsomes (BD Gentest); tissue BD Gentest; host or cells: human liver microsomes
T3 sequence (P33261 whole entry): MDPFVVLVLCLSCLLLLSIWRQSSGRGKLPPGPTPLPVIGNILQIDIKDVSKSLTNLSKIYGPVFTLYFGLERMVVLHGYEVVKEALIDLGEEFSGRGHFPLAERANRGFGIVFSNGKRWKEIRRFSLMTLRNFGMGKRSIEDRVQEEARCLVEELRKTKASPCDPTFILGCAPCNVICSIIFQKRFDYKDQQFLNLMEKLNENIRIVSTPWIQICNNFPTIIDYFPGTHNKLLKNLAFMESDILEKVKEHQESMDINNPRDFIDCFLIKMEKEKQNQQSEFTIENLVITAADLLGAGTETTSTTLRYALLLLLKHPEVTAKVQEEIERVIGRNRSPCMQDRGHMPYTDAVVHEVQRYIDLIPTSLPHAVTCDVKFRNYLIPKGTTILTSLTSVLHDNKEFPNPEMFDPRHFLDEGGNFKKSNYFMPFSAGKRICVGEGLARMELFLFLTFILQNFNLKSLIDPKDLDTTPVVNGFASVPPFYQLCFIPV
Method in brief: as §2

[4] = target: T4, CYP2D6 (Homo sapiens, UniProt P10635); assay: Cocktail assay for CYPs, dextromethorphan O-demethylation (CYP2D6), human liver microsomes; conditions: 5 μM dextromethorphan, 0.1 mg/mL human liver microsomes, 10 min at 37° C.; read-out: CYP IC50 (nM) 2D6
T4 construct: 0.1 mg/mL protein human liver microsomes (BD Gentest); tissue BD Gentest; host or cells: human liver microsomes
T4 sequence (P10635 whole entry): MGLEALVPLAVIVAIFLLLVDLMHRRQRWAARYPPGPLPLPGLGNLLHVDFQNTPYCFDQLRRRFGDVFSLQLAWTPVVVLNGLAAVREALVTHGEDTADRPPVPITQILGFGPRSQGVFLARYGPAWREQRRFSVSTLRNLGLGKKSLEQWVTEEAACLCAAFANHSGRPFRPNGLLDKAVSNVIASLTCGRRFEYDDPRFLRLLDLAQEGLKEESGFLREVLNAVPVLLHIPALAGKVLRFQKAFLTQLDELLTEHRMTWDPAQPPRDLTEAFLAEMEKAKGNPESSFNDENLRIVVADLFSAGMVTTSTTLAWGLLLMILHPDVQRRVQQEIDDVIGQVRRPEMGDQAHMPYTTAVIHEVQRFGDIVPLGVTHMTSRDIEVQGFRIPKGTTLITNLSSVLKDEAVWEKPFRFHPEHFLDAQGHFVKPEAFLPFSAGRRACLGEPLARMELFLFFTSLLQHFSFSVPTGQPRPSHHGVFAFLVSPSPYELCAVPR
Method in brief: as §1

[5] = target: T5, CYP3A4 (Homo sapiens, UniProt P08684); assay: Cocktail assay for CYPs, midazolam 1′-hydroxylation (CYP3A4), human liver microsomes; set-up: 0.1 mg/mL protein human liver microsomes (BD Gentest); tissue BD Gentest; host or cells: human liver microsomes; conditions: 2 μM midazolam, 0.1 mg/mL human liver microsomes, 10 min at 37° C.; read-out: CYP IC50 (nM) 3A4 (MDZ)
Method in brief: as §1
Target sequence in this assay (P08684 whole entry): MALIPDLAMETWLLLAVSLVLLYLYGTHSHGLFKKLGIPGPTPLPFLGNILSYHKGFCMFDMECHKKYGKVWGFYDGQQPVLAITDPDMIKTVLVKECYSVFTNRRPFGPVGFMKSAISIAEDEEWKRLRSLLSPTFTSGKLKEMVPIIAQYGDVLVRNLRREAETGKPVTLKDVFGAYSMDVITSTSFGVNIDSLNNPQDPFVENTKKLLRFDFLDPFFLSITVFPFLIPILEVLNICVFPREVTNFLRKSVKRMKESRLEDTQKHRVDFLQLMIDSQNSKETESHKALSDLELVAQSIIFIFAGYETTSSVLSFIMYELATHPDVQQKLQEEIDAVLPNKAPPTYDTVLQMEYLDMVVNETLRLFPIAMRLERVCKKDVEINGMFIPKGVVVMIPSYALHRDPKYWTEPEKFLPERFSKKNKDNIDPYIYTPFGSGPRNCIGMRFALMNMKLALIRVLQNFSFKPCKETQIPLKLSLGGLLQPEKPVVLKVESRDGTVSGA

[6] = target: T5, CYP3A4; assay: IC50 vs CYP3A by inhibition of lopinavir metabolism in human liver microsomes; set-up: 0.01 mg/mL protein human liver microsomes (BD Gentest); tissue BD Gentest; host or cells: human liver microsomes; conditions: 1.5 μM lopinavir, 0.01 mg/mL human liver microsomes, 8 min at 37° C.; read-out: CYP IC50 (nM) 3A4 (LPV)
Method in brief: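 Human liver microsomes (0.01 mg/mL) with 1.5 μM lopinavir, 1 mM NADPH, 3.3 mM MgCl2 in 100 mM potassium phosphate pH 7.4, 8 min at 37 °C, six compound concentrations. Summed M2/M3/M4 hydroxy metabolites quantified by LC/MS/MS against tolbutamide; % inhibition normalised between no-inhibitor and 5 μM ketoconazole controls, IC50 by non-linear regression.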
Target sequence in this assay (P08684 2-503): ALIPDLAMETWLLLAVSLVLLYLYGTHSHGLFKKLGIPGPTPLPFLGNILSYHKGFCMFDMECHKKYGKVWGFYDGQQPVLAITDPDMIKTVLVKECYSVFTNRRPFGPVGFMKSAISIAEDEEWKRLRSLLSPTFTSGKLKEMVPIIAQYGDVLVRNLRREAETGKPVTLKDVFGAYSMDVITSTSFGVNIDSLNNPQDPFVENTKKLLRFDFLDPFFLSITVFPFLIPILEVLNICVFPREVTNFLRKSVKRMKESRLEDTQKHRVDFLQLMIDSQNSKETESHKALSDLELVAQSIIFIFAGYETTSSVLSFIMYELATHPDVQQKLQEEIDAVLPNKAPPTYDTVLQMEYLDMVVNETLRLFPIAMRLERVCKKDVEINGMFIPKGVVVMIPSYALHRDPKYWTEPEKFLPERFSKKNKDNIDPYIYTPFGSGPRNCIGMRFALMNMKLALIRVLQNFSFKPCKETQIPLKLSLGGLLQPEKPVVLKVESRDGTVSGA

SMILES | IC50 [1] | IC50 [2] | IC50 [3] | IC50 [4] | IC50 [5] | IC50 [6]
CC(=O)Nc1ncc(S(=O)(=O)N2CCCC2c2ccccc2-c2cncn2C2CC2)s1 (stereo not drawn) [Compound 31, N-(5-((2-(2-(1-cyclopropyl-1H-imidazol-5-yl)phenyl)pyrrolidin-1-yl)sulfonyl)thiazol-2-yl) acetamide] | > 10000 nM | > 10000 nM | > 10000 nM | > 10000 nM | 25.4 nM | 25.4 nM
O=C(Oc1ccc(Cl)cc1)N1CCCC1c1ccccc1-c1cncn1CCc1ccc(F)cc1 (stereo not drawn) [Compound 36, 4-chlorophenyl 2-(2-(1-(4-fluorophenethyl)-1H-imidazol-5-yl)phenyl) pyrrolidine-1-carboxylate] | 7690 nM | 1900 nM | 1680 nM | 3700 nM | 19.4 nM | 7 nM
CC(C)(C)OC(=O)N1CCCC1c1ccccc1-c1cncn1C1CC1 (stereo not drawn) [Compound 37, tert-butyl 2-(2-(1-cyclopropyl-1H-imidazol-5-yl)phenyl) pyrrolidine-1-carboxylate] | > 10000 nM | > 10000 nM | 5810 nM | > 10000 nM | 17.8 nM | 35.2 nM
CC(C)(C)OC(=O)N1CCCC1c1ccccc1-c1cncn1CCc1ccc(F)cc1 (stereo not drawn) [Compound 38, tert-butyl 2-(2-(1-(4-fluorophenethyl)-1H-imidazol-5-yl)phenyl) pyrrolidine-1-carboxylate] | 3350 nM | 1770 nM | 2300 nM | 6860 nM | 6.7 nM | 5.5 nM
Fc1ccc(CCn2cncc2-c2ccccc2C2CCCN2)cc1 (stereo not drawn) [Compound 40, 1-(4-fluorophenethyl)-5-(2-(pyrrolidin-2-yl)phenyl)-1H-imidazole] | > 10000 nM | 4560 nM | > 10000 nM | 3300 nM | 43.4 nM | 27.4 nM
O=C(C1CCOCC1)N1CCCC1c1ccccc1-c1cncn1CCc1ccc(F)cc1 (stereo not drawn) [Compound 41, (2-(2-(1-(4-fluorophenethyl)-1H-imidazol-5-yl)phenyl)pyrrolidin-1-yl)(tetrahydro-2H-pyran-4-yl)methanone] | > 10000 nM | > 10000 nM | > 10000 nM | > 10000 nM | 10.7 nM | 11.1 nM
O=C(C1CC1)N1CCCC1c1cccc(-c2cncn2CCc2ccc(F)cc2)c1 (stereo not drawn) [Compound 47, cyclopropyl(2-(3-(1-(4-fluorophenethyl)-1H-imidazol-5-yl)phenyl)pyrrolidin-1-yl)methanone] | 2080 nM | 2330 nM | 1010 nM | 2500 nM | 14.9 nM | 16.7 nM
CC(C)NC(=O)N1CCCC1c1cccc(-c2cncn2CCc2ccc(F)cc2)c1 (stereo not drawn) [Compound 50, 2-(3-(1-(4-fluorophenethyl)-1H-imidazol-5-yl)phenyl)-N-isopropyl-pyrrolidine-1-carboxamide] | 5750 nM | 4180 nM | 2070 nM | ≥ 10000 nM | 9.4 nM | 14.2 nM
CS(=O)(=O)N1CCCC1c1cccc(-c2cncn2CCc2ccc(F)cc2)c1 (stereo not drawn) [Compound 51, 1-(4-fluorophenethyl)-5-(3-(1-(methylsulfonyl)pyrrolidin-2-yl)phenyl)-1H-imidazole] | 1160 nM | 4640 nM | 2110 nM | 6780 nM | 22.6 nM | 34.7 nM
O=C(c1ccc(N2CCOCC2)nc1)N1CCCC1c1cccc(-c2cncn2CCc2ccc(F)cc2)c1 (stereo not drawn) [Compound 52, (2-(3-(1-(4-fluorophenethyl)-1H-imidazol-5-yl)phenyl)pyrrolidin-1-yl) (6-morpholino-pyridin-3-yl) methanone] | 6500 nM | 1970 nM | 249 nM | 2460 nM | 5.76 nM | 6 nM
O=S(=O)(c1cnc(Cl)c(Br)c1)N1CCCC1c1cccc(-c2cncn2CCc2ccc(F)cc2)c1 (stereo not drawn) [Compound 54, 3-Bromo-2-chloro-5-((2-(3-(1-(4-fluorophenethyl)-1H-imidazol-5-yl)phenyl)pyrrolidin-1-yl)sulfonyl) pyridine] | 1240 nM | 422 nM | 109 nM | 1150 nM | 13.9 nM | 3.2 nM
CC(C)OC(=O)N1CCCC1c1cccc(-c2cncn2CCc2ccc(F)cc2)c1 (stereo not drawn) [Compound 56, Isopropyl 2-(3-(1-(4-fluorophenethyl)-1H-imidazol-5-yl)phenyl) pyrrolidine-1-carboxylate] | 3400 nM | 798 nM | 452 nM | 4150 nM | 18.8 nM | 11.8 nM
CN1CCN(c2ncc(S(=O)(=O)N3CCc4c(cccc4-c4cncn4CCc4ccc(F)cc4)C3)s2)CC1 [Compound 58, 5-((5-(1-(4-fluorophenethyl)-1H-imidazol-5-yl)-3,4-dihydroisoquinolin-2(1H)-yl)sulfonyl)-2-(4-methylpiperazin-1-yl)thiazole] | > 10000 nM | 1350 nM | 2830 nM | 2170 nM | 4.5 nM | 1.9 nM
CN1CCN(c2ccc(S(=O)(=O)N3CCc4c(cccc4-c4cncn4CCc4ccc(F)cc4)C3)cn2)CC1 [Compound 59, 5-(1-(4-fluorophenethyl)-1H-imidazol-5-yl)-2-((6-(4-methylpiperazin-1-yl)pyridin-3-yl)sulfonyl)-1,2,3,4-tetrahydroisoquinoline] | > 10000 nM | 4530 nM | 5610 nM | 1980 nM | 4 nM | 1.5 nM
O=S(=O)(c1ccc(N2CCOCC2)nc1)N1CCc2c(cccc2-c2cncn2CCc2ccc(F)cc2)C1 [Compound 60, 4-(5-((5-(1-(4-fluorophenethyl)-1H-imidazol-5-yl)-3,4-dihydroisoquinolin-2(1H)-yl)sulfonyl)pyridin-2-yl) morpholine] | > 10000 nM | 1350 nM | 53 nM | 2210 nM | 6.2 nM | 1.8 nM
CN(C)c1ccc(S(=O)(=O)N2CCc3c(cccc3-c3cncn3CCc3ccc(F)cc3)C2)cn1 [Compound 61, 5-((5-(1-(4-fluorophenethyl)-1H-imidazol-5-yl)-3,4-dihydroisoquinolin-2(1H)-yl)sulfonyl)-N,N-dimethyl-pyridin-2-amine] | 4620 nM | 1050 nM | 65 nM | 3250 nM | 7.6 nM | 1.4 nM
COCCN(C)c1ccc(S(=O)(=O)N2CCc3c(cccc3-c3cncn3CCc3ccc(F)cc3)C2)cn1 [Compound 62, 5-((5-(1-(4-fluorophenethyl)-1H-imidazol-5-yl)-3,4-dihydroisoquinolin-2(1H)-yl)sulfonyl)-N-(2-methoxy-ethyl)-N-methylpyridin-2-amine] | > 10000 nM | 575 nM | 238 nM | 2720 nM | 5.2 nM | 1.3 nM

Reference: patent publication US9975888B2, “Aryl linked imidazole and triazole derivatives and methods of use thereof for improving the pharmacokinetics of a drug” (MERCK SHARP & DOHME CORP., priority 2013, dated 2018)
